Test [1] concerns GFP-RFP-LC3 HeLa cell line. Description: GFP-RFP-LC3 HeLa autophagy reporter cell assay (fluorescence microscopy). The note with it: for number of red foci (autolysosomes): 10.0 μM, 6 hours, compared to negative control (DMSO). The format is cell-based, human. As for the experimental part: The GFP-RFP-LC3 HeLa cell line (Settembre et al, Science, 2011) was cultured in DMEM (Dulbecco's Modified Eagle's Medium, Sigma, D7777) containing 4500 mg/l glucose, 10% heat inactivated FCS (Merck), 40 μg/ml gentamycin (Hungaropharma) and 600 μg/ml G418 (Sigma, G8168). Drug candidates […]-0696, […]-7132 and […]-1567 were obtained from the ENAMINE molecule bank. 3×10^4 cells were plated onto 13 mm diameter poly-D-lysine coated coverslips in 24-well plates (Greiner) with 24 hours before the treatment. […] As controls, 0.1 and 1% DMSO, 200 nM rapamycin (autophagy inductor) and 100 nM bafilomycin A1 (an autophagy inhibitor) were used. For fluorescence microscopy, cells were fixed in 4% paraformaldehyde (Taab) and mounted in mowiol 4.88 (Polysciences) supplemented with bis-benzimide (Sigma) for nuclei staining. 5 epifluorescent pictures were taken in each condition by a BX51 microscope (Olympus) fitted with a FluoViewII camera and the AnalysisPro software (Olympus), using a 60×/1.4 oil Plan objective and the appropriate filter sets (DAPI: BP330-385/DM400/BA420; GFP: BP460-500/DM505/BP510-560; RFP: BP480-550/DM570/BA590). […] RFP: red fluorescence protein-autolysosome (mature autophagic compartment) GFP: green fluorescence protein Atg8: Autophagy-related protein 8-the most frequently used marker for autophagy Yellow: RFP and GFP (merged)-autophagosome (the primary autophagic structure)

For test [2], the system named is mice (pancreas, liver). Nature of the test: Autophagic activity in mouse organs by electron microscopy. The format is in vivo. The note with it: 50 uMol intraperitoneal, 2.5 hours. As to the method: 50 uMol of effective molecules were dissolved in 10% DMSO and were administered intraperitoneously. After 2.5 hours the animals were sacrificed and their organs removed. The organs were transferred to tissue cultivating solution.
The organs were prepared for electronmicroscopic studies by standard preparation techniques. The ultrathin slices were prepared using Reichert-Jung Ultracut-E type ultramicrotome. The slides were investigated by JEM Jeol 1011 electron microscope.

Test [3] concerns Drosophila melanogaster transgenic for an mCherry:Atg8 reporter (fat body). Description: mCherry:Atg8 reporter in fat body of Drosophila L3 larvae. The format is in vivo. The following applies: L3 larva, 1.0 uM, 2 hours. As for the experimental part:
Flies with the genotype of hsFlp:pAct<CD2<Gal4, UAS-nlsGFP, r4:mCherry:Atg8a were used. Microscopic images were taken from the fat body of wandering larvae at the L3 stage. Note that in well-fed larvae at the same stage, no autophagic activity is visible. 2 hours before the test, 90-94 hours larvae were transferred onto yeast suspension (0.5 g yeast extract 2.5 ml water, homogenization and boiling). […] Larvae were cultured in this medium for 2 hours. Preparation of fat bodies was performed in PBS solution. For covering, 8:2 ratio of glycerine:PBS was used (supplemented with 10 mM Hoechst solution).
Imaging was taken with a Zeiss AxioImager Z1 fluorescence microscope, supplemented with Apotome semiconfocal setup, 400× magnification, the same exposition time.
Examining T544-1567 (inhibitor), hsFlp; pAct<CD2<Gal4, UAS-nlsGFP, r4:mCherry:Atg8a flies were crossed with animals of yw; (EP)EDTP^EY22967 genotype (the autophagy antagonist EDTP/Jumpy is clonally overexpressed in fat body).
Cells with overactivated EDTP/Jumpy are in green due to the presence of the GFP transgene. Blue colour (DAP staining) indicates the nuclei (DNA). Red dots (mCherry:Atg8) indicate autophagy structures (autophagosomes+autolysosomes). […]

For the compound `CO/C1=C\C(C)=C\[C@@H](C)[C@@H](O)[C@@H](C)C/C(C)=C/C=C/[C@H](OC)[C@@H]([C@@H](C)[C@@H](O)[C@H](C)[C@@]2(O)C[C@@H](O)[C@H](C)[C@@H](C(C)C)O2)OC1=O` [Bafilomycin A1, reference compound], the “accumulation of autophagosomes (yellow foci), fusion with lysosomes blocked” value in test [1] (100 nM bafilomycin A1, 6 hours) was “yellow foci accumulate in large quantities”.

Regarding `O=C1C([N-]S(=O)(=O)c2ccc([N+](=O)[O-])cc2)=C([n+]2c[nH]c3ccccc32)C(=O)c2ccccc21` [T0501-7132], the “number of red foci (autolysosomes)” value in test [1] is “induces the accumulation the autolysosomes”. For the same compound, the “autophagy activity (autolysosome accumulation)” value in test [1] (larger dose, 50 uM) is recorded as “markedly elevated activity”.

`CC(Sc1nc2ccccc2c(=O)n1C1CCCC1)C(=O)N1CCc2ccccc21` (stereo not shown) [T558-0696]: the “number of red foci (autolysosomes)” value in test [1] is listed as “increases the number of red foci (autolysosomes)”. Further, in test [2], the “autophagic activity (autophagosomes and autolysosomes) in liver” value is “pronounced autophagic activity”; the “autophagic activity (autophagosomes and autolysosomes) in pancreas” value is given as “pronounced autophagic activity”. Moreover, the “red dots (mCherry:Atg8 autophagy structures) in fat body” value in test [3] was “increased number of red dots”.

The values above are taken from US20160346283A1, “Various Compounds as Autophagy Stimulants” (Velgene 3 Limited, priority 2013, published 2016).
